According to patent publication US20240383882A1 (Ecstasy LLC, priority 2020, published 2024):
Read-outs that look alike come from different tables or passages of the source.

Tested on: male C57BL/6 mice
Experiment: 55° C. warm-water tail-flick test (antinociception)
Assay type: in vivo
Settings: Mus musculus
Procedure: Antinociception was assessed using the 55° C. warm-water tail-flick test. The latency to the first sign of a rapid tail flick was taken as the behavioral endpoint. Each mouse was first tested for baseline latency by immersing its tail in the water and recording the time to response. Mice not responding within 2 secs were excluded from further testing. Responsive mice were then s.c. administered the test compound and tested for antinociception at 30 min, 60 min, 90 min, and 120 min time points afterward. Antinociception was calculated using the following formula: percentage of antinociception=100×(test latency−control latency)/(20−control latency).
The following new compounds were also made and tested to determine the half maximal possible effective dose, or ED50 (mg/kg), in mice, using one of: the warm water tail-flick test as in Table II, spared nerve injury, chronic constriction injury, or Complete Freund's adjuvant induced inflammatory pain. The symbols in the last column are: + indicates ED 50>50 mg/kg; ++ indicates ED 50 is less than or equal to 30 mg/kg.

[1] = half maximal effective dose in mice, using one of: warm water tail-flick test, spared nerve injury, chronic constriction injury, or Complete Freund's adjuvant induced inflammatory pain (not stated which per compound), read-out: Biological Activity (ED50)
[2] = sc, 0.5 h, compounds of Table I, s.c., 30 min, 55° C. water, configuration tested as in Table II, read-out: ED50 (mg/kg) at 30 min on C57BL/6 mice in Warm-water Tail-flick Test
[3] = sc, 0.5 h, compounds of Table III, s.c., 30 min, 55° C. water, configuration tested as in Table IV, read-out: ED50 (mg/kg) at 30 min on C57BL/6 mice in Warm-water Tail-flick Test (same as Table II)
[4] = sc, 0.5 h, compounds of Table V, s.c., 30 min, 55° C. water, read-out: ED50 (mg/kg) at 30 min on C57BL/6 mice in Warm-water Tail-flick Test (same conditions as Table II)

Structure (SMILES): Cc1ccc(CN2CC[C@@](CCc3ccc(C#N)cc3)(C3OCC3(F)F)C2)cn1 (single isomer, unassigned) [Compound 198, 4-(2-((R)-3-((R or S)-3,3-difluorooxetan-2-yl)-1-((6-methylpyridin-3-yl)methyl)pyrrolidin-3-yl)ethyl) benzonitrile]
- ED50 [1]: ≤ 30 mg/kg

Structure (SMILES): N#Cc1ccc(CC[C@@]2(C3OCC3(F)F)CCN(Cc3ccc(Cl)cc3)C2)cc1 (single isomer, unassigned) [Compound 199, 4-(2-((R)-1-(4-chlorobenzyl)-3-((R or S)-3,3-difluorooxetan-2-yl)pyrrolidin-3-yl)ethyl) benzonitrile]
- ED50 [1]: ≤ 30 mg/kg

Structure (SMILES): CC1(C)COC1[C@]1(CCc2ccc(C#N)cc2)CCN(Cc2ccc(C#N)cc2)C1 (single isomer, unassigned) [Compound 204, 4-(2-((R)-1-(4-cyanobenzyl)-3-((R or S)-3,3-dimethyloxetan-2-yl)pyrrolidin-3-yl)ethyl) benzonitrile]
- ED50 [1]: ≤ 30 mg/kg

Structure (SMILES): COc1ccc(CN2CC[C@@](CCc3ccc(C#N)cc3)(C3OCC3(C)C)C2)cc1 (single isomer, unassigned) [Compound 205, 4-(2-((R)-3-((R or S)-3,3-dimethyloxetan-2-yl)-1-(4-methoxybenzyl)pyrrolidin-3-yl)ethyl) benzonitrile]
- ED50 [1]: ≤ 30 mg/kg

Structure (SMILES): CC1(C)COC1[C@]1(CCc2ccc(C#N)cc2)CCN(Cc2ncc(Cl)cn2)C1 (single isomer, unassigned) [Compound 210, 4-(2-((R)-1-((5-chloropyrimidin-2-yl)methyl)-3-((R or S)-3,3-dimethyloxetan-2-yl)pyrrolidin-3-yl)ethyl)benzonitrile]
- ED50 [1]: > 50 mg/kg

Structure (SMILES): CC1(C)COC1[C@]1(CCc2ccc(C#N)cc2)CCN(Cc2ncc(Cl)s2)C1 (single isomer, unassigned) [Compound 211, 4-(2-((R)-1-((5-chlorothiazol-2-yl)methyl)-3-((R or S)-3,3-dimethyloxetan-2-yl)pyrrolidin-3-yl)ethyl)benzonitrile]
- ED50 [1]: ≤ 30 mg/kg

Structure (SMILES): CC(C)(c1ccccc1)N1CC[C@](CCc2ccc(S(C)(=O)=O)cc2)(C(O)C(F)(F)F)C1 (single isomer, unassigned) [Compound 213, (R or S)-2,2,2-trifluoro-1-((S)-3-(4-(methylsulfonyl)phenethyl)-1-(2-phenylpropan-2-yl)pyrrolidin-3-yl)ethan-1-ol]
- ED50 [1]: ≤ 30 mg/kg

Structure (SMILES): CC(O)[C@]1(CCc2ccc(C#N)cc2)CCN(C(C)(C)c2ccc(C(F)(F)F)nc2)C1 (single isomer, unassigned) [Compound 214, 4-(2-((R)-3-((R or S)-1-hydroxyethyl)-1-(2-(6-(trifluoromethyl)pyridin-3-yl)propan-2-yl)pyrrolidin-3-yl)ethyl) benzonitrile]
- ED50 [1]: ≤ 30 mg/kg

Structure (SMILES): CC(O)[C@]1(CCc2ccc(F)cc2)CCN(C(C)(C)c2ccccn2)C1 (single isomer, unassigned) [Compound 216, (R or S)-1-((R)-3-(4-fluorophenethyl)-1-(2-(pyridin-2-yl)propan-2-yl)pyrrolidin-3-yl)ethan-1-ol]
- ED50 [1]: > 50 mg/kg

Structure (SMILES): CC(C)(c1ccccn1)N1CC[C@](/C=C/c2ccc(S(C)(=O)=O)cc2)(C2CCCO2)C1 (single isomer, unassigned) [Compound 218, 2-(2-((R)-3-((E)-4-(methylsulfonyl)styryl)-3-((R or S)-tetrahydrofuran-2-yl)pyrrolidin-1-yl)propan-2-yl)pyridine]
- ED50 [1]: > 50 mg/kg

Structure (SMILES): CC(O)[C@]1(CCc2ccc(S(C)(=O)=O)cc2)CCN(C(C)(C)c2ccc(Cl)cc2)C1 (single isomer, unassigned) [Compound 219, (R or S)-1-((R)-1-(2-(4-chlorophenyl)propan-2-yl)-3-(4-(methylsulfonyl)phenethyl)pyrrolidin-3-yl)ethan-1-ol]
- ED50 [1]: > 50 mg/kg

Structure (SMILES): CC(C)(c1ccc(Cl)cc1)N1CC[C@@](CCc2ccc(S(C)(=O)=O)cc2)(C(O)C(F)(F)F)C1 (single isomer, unassigned) [Compound 222, (R or S)-1-((R)-1-(2-(4-chlorophenyl)propan-2-yl)-3-(4-(methylsulfonyl)phenethyl)pyrrolidin-3-yl)-2,2,2-trifluoroethan-1-ol]
- ED50 [1]: > 50 mg/kg

Structure (SMILES): CC(C)(c1ccccn1)N1CC[C@](CCc2ccc(C#N)cc2)(C(O)C(F)(F)F)C1 (single isomer, unassigned) [Compound 223]
- ED50 [1]: > 50 mg/kg

Structure (SMILES): Cc1ccnc(C)c1CN1CC[C@@](CCc2ccc(C#N)cc2)(C(O)C(F)(F)F)C1 (single isomer, unassigned) [Compound 227, 4-(2-((R)-1-((2,4-dimethylpyridin-3-yl)methyl)-3-((R or S)-2,2,2-trifluoro-1-hydroxyethyl)pyrrolidin-3-yl)ethyl) benzonitrile]
- ED50 [1]: > 50 mg/kg

Structure (SMILES): CC(C)(c1ccc(F)cn1)N1CC[C@](CCc2ccc(C#N)cc2)(C(O)C(F)(F)F)C1 (single isomer, unassigned) [Compound 229, 4-(2-((S)-1-(2-(5-fluoropyridin-2-yl)propan-2-yl)-3-((R or S)-2,2,2-trifluoro-1-hydroxyethyl)pyrrolidin-3-yl)ethyl) benzonitrile]
- ED50 [1]: > 50 mg/kg

Structure (SMILES): Cc1ccc(C(C)(C)N2CCC(CCc3ccc(F)s3)(c3ncc(C(C)(C)C)[nH]3)C2)cn1 (single isomer, unassigned) [Compound 282]
- ED50 [2]: ≤ 30 mg/kg

Structure (SMILES): Cc1ccc(C(C)(C)N2CCC(CCc3ccc(F)s3)(CNS(C)(=O)=O)C2)cn1 (single isomer, unassigned) [Compound 313]
- ED50 [2]: ≤ 30 mg/kg

Structure (SMILES): Cc1ccc(C(C)(C)N2CCC(CCc3ccc(F)s3)(C(NS(C)(=O)=O)c3ccccn3)C2)cn1 (single isomer, unassigned) [Compound 319]
- ED50 [2]: ≤ 30 mg/kg

Structure (SMILES): Cc1ccc(C(C)(C)N2CCC(CCc3ccc(F)s3)(CNS(=O)(=O)C(C)C)C2)cn1 (single isomer, unassigned) [Compound 320]
- ED50 [2]: ≤ 30 mg/kg

Structure (SMILES): Cc1ccc(S(=O)(=O)NC(c2ccccn2)C2(CCc3ccc(F)s3)CCN(C(C)(C)c3ccc(C)nc3)C2)cc1 (single isomer, unassigned) [Compound 321]
- ED50 [2]: ≤ 30 mg/kg

Structure (SMILES): Cc1ccc(C(C)(C)N2CCC(CCc3ccc(F)s3)(CNS(=O)(=O)O)C2)cn1 (single isomer, unassigned) [Compound 322]
- ED50 [2]: ≤ 30 mg/kg

Structure (SMILES): CCOCC1(CCc2ccc(F)cc2)CCN(Cc2ccccc2)C1 (stereo in doubt) [Compound 4, (S)-1-benzyl-3-(ethoxymethyl)-3-(4-fluorophenethyl) pyrrolidine]
- ED50 [2]: ≤ 30 mg/kg
- ED50 [3]: > 50 mg/kg
- ED50 [4]: ≤ 30 mg/kg
- ED50 [1]: > 50 mg/kg

Structure (SMILES): CC(C)(c1ccccn1)N1CC[C@@](CCc2ccc(C#N)cc2)(C(C)(C)O)C1 [(R)-4-(2-(3-(2-hydroxypropan-2-yl)-1-(2-(pyridin-2-yl)propan-2-yl)pyrrolidin-3-yl)ethyl) benzonitrile]
- ED50 [1]: > 50 mg/kg

Structure (SMILES): CCOC[C@]1(CCc2ccc(F)cc2)CCN(Cc2ccc(OC)nc2)C1 [Compound 1, (R)-5-((3-(ethoxymethyl)-3-(4-fluorophenethyl)pyrrolidin-1-yl)methyl)-2-methoxypyridine]
- ED50 [1]: > 50 mg/kg

Structure (SMILES): CCOC[C@]1(CCc2ccc(F)cc2)CCN(Cc2cnc(OC)cc2C#N)C1 [Compound 2, (R)-5-((3-(ethoxymethyl)-3-(4-fluorophenethyl)pyrrolidin-1-yl)methyl)-2-methoxy-isonicotino nitrile]
- ED50 [1]: ≤ 30 mg/kg

Structure (SMILES): CCOC[C@]1(CCc2ccc(C#N)cc2)CCN(Cc2cccnc2)C1 [Compound 3, (R)-4-(2-(3-(ethoxymethyl)-1-(pyridin-3-ylmethyl)pyrrolidin-3-yl)ethyl) benzonitrile]
- ED50 [1]: ≤ 30 mg/kg

Structure (SMILES): CCOCC1(CCc2ccccc2)CCN(C(C)(C)c2ccc(-c3cn[nH]n3)cc2)CC1 [Compound 5]
- ED50 [4]: ≤ 30 mg/kg

Structure (SMILES): CCOC[C@]1(CCc2ccc(F)cc2)CCN(Cc2cccnc2C(N)=O)C1 [Compound 5]
- ED50 [1]: > 50 mg/kg

Structure (SMILES): CCOC[C@]1(CCc2ccccc2)CCN(C(C)(C)c2ccc(Br)cc2)C1 [Compound 5]
- ED50 [3]: ≤ 30 mg/kg

Structure (SMILES): CCOC(C(F)(F)F)(C(F)(F)F)[C@]1(CCc2ccc(C#N)cc2)CCN(C(C)(C)c2ccc(C)nc2)C1 [Compound 6, (R)-4-(2-(3-(2-ethoxy-1,1,1,3,3,3-hexafluoropropan-2-yl)-1-(2-(6-methylpyridin-3-yl)propan-2-yl)pyrrolidin-3-yl)ethyl) benzonitrile]
- ED50 [1]: ≤ 30 mg/kg

Structure (SMILES): CCOC(C(F)(F)F)(C(F)(F)F)[C@]1(CCc2ccc(C)cc2)CCN(C(C)(C)c2ccc(C)nc2)C1 [Compound 7, (R)-5-(2-(3-(2-ethoxy-1,1,1,3,3,3-hexafluoropropan-2-yl)-3-(4-methylphenethyl)pyrrolidin-1-yl)propan-2-yl)-2-methylpyridine]
- ED50 [1]: > 50 mg/kg

Structure (SMILES): CCOC(C(F)(F)F)(C(F)(F)F)[C@]1(CCc2ccc(C#N)cc2)CCN(Cc2ccc(C)nc2)C1 [Compound 8, (R)-4-(2-(3-(2-ethoxy-1,1,1,3,3,3-hexafluoropropan-2-yl)-1-((6-methylpyridin-3-yl)methyl)pyrrolidin-3-yl)ethyl) benzonitrile]
- ED50 [1]: > 50 mg/kg
